In PubChem BioAssay (NCI):
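Results reflect a 48-hour exposure of cells in 96-well plates to compound at five concentrations. TGI: total growth inhibition.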

Experiments:
Assay in all cases: NCI anticancer screen, dose series, 48 h
SK-OV-3 ovarian = test system: SK-OV-3 ovarian
ACHN renal = test system: ACHN renal
HT29 colon = test system: HT29 colon
SF-295 CNS = test system: SF-295 CNS
HCC-2998 colon = test system: HCC-2998 colon
MALME-3M melanoma = test system: MALME-3M melanoma
KM12 colon = test system: KM12 colon
UACC-62 melanoma = test system: UACC-62 melanoma
UACC-257 melanoma = test system: UACC-257 melanoma
786-0 renal = test system: 786-0 renal
CAKI-1 renal = test system: CAKI-1 renal
SW-620 colon = test system: SW-620 colon
SK-MEL-28 melanoma = test system: SK-MEL-28 melanoma
A549 NSCLC = test system: A549 NSCLC
XF 498 CNS = test system: XF 498 CNS
TK-10 renal = test system: TK-10 renal
LOX IMVI melanoma = test system: LOX IMVI melanoma
MOLT-4 leukemia = test system: MOLT-4 leukemia
A498 renal = test system: A498 renal
SNB-75 CNS = test system: SNB-75 CNS
HOP-92 NSCLC = test system: HOP-92 NSCLC
UO-31 renal = test system: UO-31 renal
SF-268 CNS = test system: SF-268 CNS
RXF 393 renal = test system: RXF 393 renal
NCI-H460 lung = test system: NCI-H460 lung
SK-MEL-5 melanoma = test system: SK-MEL-5 melanoma
RPMI-8226 leukemia = test system: RPMI-8226 leukemia
DMS 273 small cell lung = test system: DMS 273 small cell lung
IGROV1 ovarian = test system: IGROV1 ovarian
DMS 114 small cell lung = test system: DMS 114 small cell lung
COLO 205 colon = test system: COLO 205 colon
U251 CNS = test system: U251 CNS
NCI-H522 lung = test system: NCI-H522 lung
NCI-H23 lung = test system: NCI-H23 lung
EKVX NSCLC = test system: EKVX NSCLC
CCRF-CEM leukemia = test system: CCRF-CEM leukemia
HOP-62 NSCLC = test system: HOP-62 NSCLC
K-562 leukemia = test system: K-562 leukemia
OVCAR-3 ovarian = test system: OVCAR-3 ovarian
OVCAR-8 ovarian = test system: OVCAR-8 ovarian
KM20L2 colon = test system: KM20L2 colon
M14 melanoma = test system: M14 melanoma
OVCAR-4 ovarian = test system: OVCAR-4 ovarian
HCT-15 colon = test system: HCT-15 colon
SF-539 CNS = test system: SF-539 CNS
HCT-116 colon = test system: HCT-116 colon
SNB-78 CNS = test system: SNB-78 CNS
M19-MEL melanoma = test system: M19-MEL melanoma
SK-MEL-2 melanoma = test system: SK-MEL-2 melanoma
LXFL 529 NSCLC = test system: LXFL 529 NSCLC
SN12C renal = test system: SN12C renal
OVCAR-5 ovarian = test system: OVCAR-5 ovarian
DLD-1 colon = test system: DLD-1 colon
SNB-19 CNS = test system: SNB-19 CNS

Clc1ccc(-c2nnc3c4nnc(-c5ccc(Cl)cc5Cl)n4c4ccccc4n23)c(Cl)c1
TGI (SK-OV-3 ovarian): > 100 µM
TGI (ACHN renal): > 100 µM
TGI (HT29 colon): > 100 µM
TGI (SF-295 CNS): > 100 µM
TGI (HCC-2998 colon): > 100 µM
TGI (MALME-3M melanoma): > 100 µM
TGI (KM12 colon): > 100 µM
TGI (UACC-62 melanoma): > 100 µM
TGI (UACC-257 melanoma): > 100 µM
TGI (786-0 renal): > 100 µM
TGI (CAKI-1 renal): > 100 µM
TGI (SW-620 colon): > 100 µM
TGI (SK-MEL-28 melanoma): > 100 µM
TGI (A549 NSCLC): > 100 µM
TGI (XF 498 CNS): > 100 µM
TGI (TK-10 renal): > 100 µM
TGI (LOX IMVI melanoma): > 100 µM
TGI (MOLT-4 leukemia): > 100 µM
TGI (A498 renal): > 100 µM
TGI (SNB-75 CNS): 63.2 µM
TGI (HOP-92 NSCLC): > 100 µM
TGI (UO-31 renal): > 100 µM
TGI (SF-268 CNS): > 100 µM
TGI (RXF 393 renal): > 100 µM
TGI (NCI-H460 lung): > 100 µM
TGI (SK-MEL-5 melanoma): > 100 µM
TGI (RPMI-8226 leukemia): > 100 µM
TGI (DMS 273 small cell lung): > 100 µM
TGI (IGROV1 ovarian): > 100 µM
TGI (DMS 114 small cell lung): > 100 µM
TGI (COLO 205 colon): > 100 µM
TGI (U251 CNS): > 100 µM
TGI (NCI-H522 lung): > 100 µM
TGI (NCI-H23 lung): > 100 µM
TGI (EKVX NSCLC): > 100 µM
TGI (CCRF-CEM leukemia): > 100 µM
TGI (HOP-62 NSCLC): > 100 µM
TGI (K-562 leukemia): > 100 µM
TGI (OVCAR-3 ovarian): > 100 µM
TGI (OVCAR-8 ovarian): > 100 µM
TGI (KM20L2 colon): > 100 µM
TGI (M14 melanoma): > 100 µM
TGI (OVCAR-4 ovarian): > 100 µM
TGI (HCT-15 colon): > 100 µM
TGI (SF-539 CNS): > 100 µM
TGI (HCT-116 colon): > 100 µM
TGI (SNB-78 CNS): > 100 µM
TGI (M19-MEL melanoma): > 100 µM
TGI (SK-MEL-2 melanoma): > 100 µM
TGI (LXFL 529 NSCLC): > 100 µM
TGI (SN12C renal): > 100 µM
TGI (OVCAR-5 ovarian): > 100 µM
TGI (DLD-1 colon): > 100 µM
TGI (SNB-19 CNS): > 100 µM
